Consider 3 compounds from patent US9840494B2, “Quinazoline derivative” (Tianjin Hemay Oncology Pharmaceutical Co., Ltd., priority 2013, dated 2017).

For data set [1] the following is noted: FDA application records; cited from earlier work.
The conditions of data set [2]: Li D et al., Oncogene 2008; cited from earlier work.
Data set [3] can be described thus: Preliminary pharmacokinetic studies. The class given is in vivo.
Data set [4] can be described thus: MTD assay, single administration to mice. The class given is in vivo. To be noted: ICR male mice, tail intravenous administration, 14 days. The source says: MTD Assay for a Single […] to Mice
1. Experimental Animals: ICR male mice, weighing 19-22 g, were purchased from Beijing Vital River Laboratory Animal Technology Co., Ltd., Animal License No. SCXK (Beijing) 2007-0001
2. Experimental Scheme: 21 mice were divided into nine groups: groups I, IV and VI referred to one mouse per group, groups II, V and IIX referred to four mice per group, and group III, VI and IX referred to two mice per group. Compound 4, compound 2 and compound 12 were dissolved in water for injection. Groups I-III were subjected to tail intravenous administration of compound 4 (N-[4-(3-chloro-4-fluorophenylamino)-7-(2-methoxyethoxy)quinazolin-6yl]-2-[piperidin-4-ylidene]acetamide dihydrochloride) at doses of 100 mg/kg, 150 mg/kg, and 200 mg/kg, respectively. The animal response and the weight change were observed after administration, and these animals were sacrificed after 14 days for anatomical observation. Groups IV-VI were subjected to tail intravenous administration of compound 2 (N-[4-(3-chloro-4-fluorophenylamino)-7-(2-methoxyethoxy)quinazolin-6yl]-2-[1-(2-methoxyethyl)piperidin-4-ylidene]acetamide dihydrochloride) at doses of 100 mg/kg, 150 mg/kg, and 200 mg/kg, respectively. The animal response and the weight change were observed after administration, and these animals were sacrificed after 14 days for anatomical observation. Groups VII-IX were subjected to tail intravenous administration of compound 12 (N-[4-(3-ethynylphenylamino-7-(2-ethoxy)quinazolin-6yl]-2-[1-methylpiperidin-4-ylidene]acetamide dihydrochloride) at doses of 100 mg/kg, 150 mg/kg, and 200 mg/kg, respectively. The animal response and the weight change were observed after administration, and these animals were sacrificed after 14 days for anatomical observation.

Counter-ions that a name gives are not always drawn.

What is called bioavailability is dose-corrected exposure relative to a reference, in per cent. `CN(C)C/C=C/C(=O)Nc1cc2c(Nc3ccc(F)c(Cl)c3)ncnc2cc1O[C@H]1CCOC1` [Afatinib]: the bioavailability in data set [1] is recorded as 11.175%. Moreover, the MTD in data set [2] is given as 30 mg/kg.

In the case of `COCCOc1cc2ncnc(Nc3ccc(F)c(Cl)c3)c2cc1NC(=O)C=C1CCNCC1` [Compound 4, N-[4-(3-chloro-4-fluorophenylamino)-7-(2-methoxyethoxy)quinazolin-6yl]-2-[piperidin-4-ylidene]acetamide dihydrochloride], in data set [3], the “distribution (gathering in the gastrointestinal tract)” value was “gathered in the gastrointestinal tract” and the oral bioavailability result is “very low”. In data set [4] (100 mg/kg, 1 animal), the Mortality is reported as 0% and the “Number of Deaths” value was found to be 0. For the same compound, in data set [4] (150 mg/kg, 4 animals), the Mortality is given as 0% and the “Number of Deaths” value amounted to 0. Further, in data set [4] (200 mg/kg, 2 animals), the Mortality turned out to be 50% and the “Number of Deaths” value turned out to be 1.

Take `C#Cc1cccc(Nc2ncnc3cc(OCC)c(NC(=O)C=C4CCN(C)CC4)cc23)c1` [Compound 12, N-[4-(3-ethynylphenylamino-7-(2-ethoxy)quinazolin-6-yl]-2-[1-methylpiperidin-4-ylidene]acetamidedihydrochloride]: in data set [3], the “distribution (gathering in the gastrointestinal tract)” value was “gathered in the gastrointestinal tract” and the oral bioavailability entry is given as “very low”. In data set [4] (100 mg/kg, 1 animal), the Mortality was 0% and the “Number of Deaths” value was 0. For the same compound, in data set [4] (150 mg/kg, 4 animals), the Mortality is recorded as 50% and the “Number of Deaths” value amounted to 2. Further, in data set [4] (200 mg/kg, 2 animals), the Mortality came to 100% and the “Number of Deaths” value came out at 2.
